Measurements: patent US20100273822A1, “Immediate release compositions and methods for delivering drug formulations using strong acid ion exchange resins” (priority 2009, published 2010)

Test: Dissolution test USP 31 NF 26 section 711, apparatus 1 baskets at 100 rpm
Format: physicochemical
Description: The release enhancing agent, CaCl2, was added to the capsule blend of the first sample while a second formulation was prepared as a control without the use of the release enhancing agent. Six capsules from each formulation were then tested for dissolution.
The test used followed USP 31 NF 26 section 711 using apparatus 1 baskets at 100 rpm (no enzymes). The media selected was simulated gastric (0.1N HCl) at a volume of 900 ml. One capsule was added to each dissolution vessel. At the 60 minute time point the baskets were removed without touching the contents and subsequently placed in dissolution vessels containing 900 ml of simulated intestinal fluid (pH of 6.8). Aliquots were drawn at 15, 30, 45, and 120 minutes. An equivalent amount of media was replaced in the dissolution vessel to account for the volume of the sample removed. The aliquots were filtered and subsequently analyzed using HPLC equipped with a UV detector.
The process that was used to create the resinate, filling the capsules and carrying out the dissolution test in this example was the same as described in Example 1 except that 60 mg of CaCl2 was used instead of 40 mg as in Example 1.

## [Ca+2].[Cl-].[Cl-] [CaCl2]
Example 1, 40 mg CaCl2 in capsule with dextromethorphan IRP69 resinate
  effect of adding the release enhancing agent on release rate of dextromethorphan vs control formulation: increased the release rate of dextromethorphan
Example 2, 60 mg CaCl2 in capsule with dextromethorphan IRP69 resinate
  effect of adding the release enhancing agent on release rate of dextromethorphan vs control formulation: increased the release rate of dextromethorphan
